Among the data in patent US9988400B2 (Genentech, Inc., priority 2013, dated 2018) are EC50 and Max % values, retold here.

What is called pEC50 is the negative decadic logarithm of the EC50, by convention in mol/L.

pEC50: −log10 of the molar value.

In this assay the target is T1, HEK cells stably transfected with tetracycline inducible hNR1 and hNR2A (Homo sapiens, UniProt Q05586+Q12879).
T1 construct: expressed in transfected cells; host or cells: HEK cells, stably transfected, tetracycline/doxycycline inducible
Nature of the assay: Assay 1: Cell-Based Assay, cytosolic calcium response to positive allosteric modulators (with 30 μM glycine and 300 nM L-glutamate, EC30). The following applies: for pEC50: cytosolic calcium response, with 30 μM glycine and 300 nM L-glutamate (EC30), — = no plateau was reached; for Max %: responses scaled relative to 100 μM L-glutamate maximal response (100%) and 0 μM L-glutamate (0%). The procedure:
Assay 1: Cell-Based Assay
HEK cells stably transfected with tetracycline inducible hNR1 and hNR2A were seeded into clear bottom 384 well poly-D-lysine coated plates (2.5×10^4 cells per well) in Minimum Essential Media (MEM; without L-) including 7.5 μg mL^−1 doxycycline and 500 μM (+)-ketamine. The cells were incubated at 37° C. in 5% CO2 for 24 h. For measurement of changes in cytosolic calcium, the seeding media was removed and the cells incubated at 37° C. for 60 min with 1× Becton Dickinson Calcium Assay Kit reagent in Hanks Balanced Salt Solution (HBSS; w/o magnesium, including 1.8 mM calcium, 0.65 mg ml^−1 probenecid and 10 μM (+)-ketamine, pH 7.15) then allowed to equilibrate to rt for 30 min. Concentration-effect curves to Positive Allosteric Modulators (PAMs) were constructed by adding different concentrations (with 30 μM glycine and 300 nM L-glutamate (EC30)) to different wells in HBSS. Compounds were added after a 10 second baseline read and maximum level of relative fluorescence units (RFU) was measured over a 5 min period. Responses were scaled relative to 100 μM L-glutamate maximal response (100%) and 0 μM L-glutamate (0%). EC50 values are provided for compounds reaching maximal response plateaus, and the max % (EC50 (- -)) only if no plateau was reached.
A four-parameter Hill equation was fitted to individual concentration-effect curves:
[formula] in which Y, S0, Sinf, AC50, n and c were effect, lower-asymptote, upper-asymptote, mid-point location, slope parameter, and concentration respectively.

T1 sequence (Q12879 23-1464, other chains not shown): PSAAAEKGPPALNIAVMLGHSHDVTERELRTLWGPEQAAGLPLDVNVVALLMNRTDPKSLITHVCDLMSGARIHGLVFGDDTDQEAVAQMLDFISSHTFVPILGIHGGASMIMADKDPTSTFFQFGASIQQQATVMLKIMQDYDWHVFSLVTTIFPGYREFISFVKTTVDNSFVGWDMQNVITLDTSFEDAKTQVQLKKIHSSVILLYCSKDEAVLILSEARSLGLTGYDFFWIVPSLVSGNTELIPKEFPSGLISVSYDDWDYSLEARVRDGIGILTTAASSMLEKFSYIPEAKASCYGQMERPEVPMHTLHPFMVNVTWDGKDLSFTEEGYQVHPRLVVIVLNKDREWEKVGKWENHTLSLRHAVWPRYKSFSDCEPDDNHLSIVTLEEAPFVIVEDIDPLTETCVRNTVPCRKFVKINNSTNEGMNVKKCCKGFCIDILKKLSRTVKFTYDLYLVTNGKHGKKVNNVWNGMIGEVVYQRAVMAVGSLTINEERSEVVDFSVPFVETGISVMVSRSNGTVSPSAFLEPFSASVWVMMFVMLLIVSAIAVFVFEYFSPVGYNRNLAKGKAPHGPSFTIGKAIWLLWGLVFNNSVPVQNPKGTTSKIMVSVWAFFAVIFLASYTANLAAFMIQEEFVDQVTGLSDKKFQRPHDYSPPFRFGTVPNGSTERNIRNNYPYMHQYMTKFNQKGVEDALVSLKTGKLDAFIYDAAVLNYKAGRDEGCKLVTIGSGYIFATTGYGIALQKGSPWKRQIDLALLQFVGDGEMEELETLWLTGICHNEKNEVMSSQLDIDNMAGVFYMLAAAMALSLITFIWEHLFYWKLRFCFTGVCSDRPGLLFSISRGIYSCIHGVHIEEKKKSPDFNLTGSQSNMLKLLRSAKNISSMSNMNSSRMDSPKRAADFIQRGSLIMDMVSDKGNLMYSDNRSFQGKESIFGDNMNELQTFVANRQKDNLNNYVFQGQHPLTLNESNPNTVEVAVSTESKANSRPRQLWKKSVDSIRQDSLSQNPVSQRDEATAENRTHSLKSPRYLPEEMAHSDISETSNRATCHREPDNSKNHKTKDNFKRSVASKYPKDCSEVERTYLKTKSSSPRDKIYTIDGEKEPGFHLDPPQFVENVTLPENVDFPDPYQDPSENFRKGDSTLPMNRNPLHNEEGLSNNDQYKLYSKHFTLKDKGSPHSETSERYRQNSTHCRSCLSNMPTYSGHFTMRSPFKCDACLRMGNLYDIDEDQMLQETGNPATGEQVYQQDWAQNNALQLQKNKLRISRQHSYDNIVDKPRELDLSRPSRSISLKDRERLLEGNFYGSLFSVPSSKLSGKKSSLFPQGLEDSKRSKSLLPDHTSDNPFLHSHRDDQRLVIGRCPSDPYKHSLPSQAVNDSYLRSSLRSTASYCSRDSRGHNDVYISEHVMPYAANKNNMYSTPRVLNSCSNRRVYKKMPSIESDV

Take `Cc1sc2nc(Cn3nc(C4CC4)cc3C(F)(F)F)cc(=O)n2c1[C@@H]1C[C@H]1CO` (relative stereo) [Example 15.12, 7-((3-cyclopropyl-5-(trifluoromethyl)-1H-pyrazol-1-yl)methyl)-3-(trans-2-(hydroxymethyl)cyclopropyl)-2-methyl-5H-thiazolo[3,2-a]pyrimidin-5-one]: for the setting “Table 2”, the pEC50 was 5.60 and the Max % amounted to 143%.
Regarding `CNC(=O)c1c(C(F)(F)F)sc2nc(Cn3nc(C(F)(F)F)cc3C)cc(=O)n12` [compound 61, N-methyl-7-[[5-methyl-3-(trifluoromethyl)pyrazol-1-yl]methyl]-5-oxo-2-(trifluoromethyl)thiazolo[3,2-a]pyrimidine-3-carboxamide], for the setting “Table 3”, the pEC50 is 5.09.
As to `Cc1sc2nc(COc3ccc(F)cc3)cc(=O)n2c1C1CC1CO` (single isomer, unassigned) [Example 4.3, 7-(4-Fluorophenoxymethyl)-3-[trans-2-(hydroxymethyl)cyclopropyl]-2-methyl-5H-[1,3]thiazolo[3,2-a]pyrimidin-5-one], where the note is “Table 2”, the pEC50 is 4.69 and the Max % was found to be 71.6%.
For `Cc1cc(C2CC2)n(Cc2cc(=O)n3c([C@@H]4C[C@H]4CO)c(C)sc3n2)n1` (single isomer, unassigned) [Example 15.14, 7-[(5-cyclopropyl-3-methyl-pyrazol-1-yl)methyl]-3-[2-(hydroxymethyl)cyclopropyl]-2-methyl-thiazolo[3,2-a]pyrimidin-5-one], in that order: 5.51 and 159%.
For `Cc1sc2nc(Oc3cccc(C#N)c3F)cc(=O)n2c1C1CC1C(F)(F)F` (stereo not drawn) [compound 77, 2-fluoro-3-[2-methyl-5-oxo-3-[2-(trifluoromethyl)cyclopropyl]thiazolo[3,2-a]pyrimidin-7-yl]oxy-benzonitrile], the pEC50 (Table 3) is 6.57.
As to `Cc1sc2nc(Cc3cccc(C#N)c3F)cc(=O)n2c1C1CC1C#N` (stereo not drawn) [Example 23.2, 3-((3-(2-cyanocyclopropyl)-2-methyl-5-oxo-5H-thiazolo[3,2-a]pyrimidin-7-yl)methyl)-2-fluorobenzonitrile], where the note is “Table 2”, the pEC50 is 5.59.
In the case of `Cc1sc2nc(CN3c4ccc(F)cc4CC3C)cc(=O)n2c1-c1cncnc1` (stereo not drawn) [Example 5.48, 7-((5-fluoro-2-methylindolin-1-yl)methyl)-2-methyl-3-(pyrimidin-5-yl)-5H-thiazolo[3,2-a]pyrimidin-5-one], under “Table 2”, the pEC50 was 5.21 and the Max % was 136%.
In the case of `CC1CC1c1c(C(F)(F)F)sc2nc(Cc3cccc(C#N)c3F)cc(=O)n12` (stereo not drawn) [compound 253, 2-fluoro-3-[[3-[2-methylcyclopropyl]-5-oxo-2-(trifluoromethyl)thiazolo[3,2-a]pyrimidin-7-yl]methyl]benzonitrile], the pEC50 (Table 3) is 5.00.
`COCc1c(C)sc2nc(COc3ccc(F)cc3)cc(=O)n12` [Example 4.31, 7-(4-Fluorophenoxymethyl)-3-(methoxymethyl)-2-methyl-5H-[1,3]thiazolo[3,2-a]pyrimidin-5-one]: the Max % (Table 2) is on record as 43.3%.
Turning to `Cc1sc2nc(COc3ccc(F)cc3)cc(=O)n2c1C1CC1CF` (stereo not drawn) [Example 4.28, 3-(2-(fluoromethyl)cyclopropyl)-7-((4-fluorophenoxy)methyl)-2-methyl-5H-thiazolo[3,2-a]pyrimidin-5-one], where the note is “Table 2”, the pEC50 was 5.47 and the Max % was found to be 89%.
For `Cc1sc2nc(Cn3nc(Cl)cc3C(F)(F)F)cc(=O)n2c1-c1cncc(F)c1` [compound 139, 7-[[3-chloro-5-(trifluoromethyl)pyrazol-1-yl]methyl]-3-(5-fluoro-3-pyridyl)-2-methyl-thiazolo[3,2-a]pyrimidin-5-one], for the setting “Table 3”, the pEC50 is 5.20.
With `Cc1cc(C)n(Cc2cc(=O)n3c([C@@H]4C[C@H]4CO)c(C)sc3n2)n1` (relative stereo) [Example 15.25, 7-[(3,5-dimethylpyrazol-1-yl)methyl]-3-[trans-2-(hydroxymethyl)cyclopropyl]-2-methyl-thiazolo[3,2-a]pyrimidin-5-one], where the note is “Table 2”, the pEC50 is 4.78 and the Max % stood at 137%.
